Source: ChEMBL document CHEMBL1201862, “PubChem BioAssay data set” (2004)
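Briefly, cells in 96-well plates were exposed to five compound concentrations for 48 h, and endpoints were estimated by linear interpolation. At the GI50, growth is halved.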 Calls of active or inactive are those of the source. Cut-off read from the data, not from the text of the source: active = GI50 up to about 1.1 µM and inactive = higher.

What was measured:
Assay in all cases: NCI-60 cell line screen, 48 h
A549 = test system: A549
CAKI-1 = test system: CAKI-1
COLO 205 = test system: COLO 205
DU-145 = test system: DU-145
HCC 2998 = test system: HCC 2998
HCT-116 = test system: HCT-116
HT-29 = test system: HT-29
Hs-578T = test system: Hs-578T
MCF7 = test system: MCF7
MDA-MB-231 = test system: MDA-MB-231
MDA-MB-435 = test system: MDA-MB-435
Malme-3M = test system: Malme-3M
NCI-H522 = test system: NCI-H522
OVCAR-3 = test system: OVCAR-3
RXF 393 = test system: RXF 393
SF-268 = test system: SF-268
SF-295 = test system: SF-295
SK-MEL-28 = test system: SK-MEL-28
SR = test system: SR
TK-10 = test system: TK-10

Row | SMILES | GI50 (A549) | GI50 (CAKI-1) | GI50 (COLO 205) | GI50 (DU-145) | GI50 (HCC 2998) | GI50 (HCT-116) | GI50 (HT-29) | GI50 (Hs-578T) | GI50 (MCF7) | GI50 (MDA-MB-231) | GI50 (MDA-MB-435) | GI50 (Malme-3M) | GI50 (NCI-H522) | GI50 (OVCAR-3) | GI50 (RXF 393) | GI50 (SF-268) | GI50 (SF-295) | GI50 (SK-MEL-28) | GI50 (SR) | GI50 (TK-10)
1 | NS(=O)(=O)c1ccc(NC(=O)N/N=C/c2ccccc2[N+](=O)[O-])cc1 | > 100 µM (inactive) | 44.8 µM (inactive) | 38.4 µM (inactive) | 72.3 µM (inactive) | 33.9 µM (inactive) | 30.1 µM (inactive) | 30.1 µM (inactive) | 46.6 µM (inactive) | 29.7 µM (inactive) | 44.8 µM (inactive) | 19 µM (inactive) | 78.2 µM (inactive) | 41.8 µM (inactive) | 30.1 µM (inactive) | > 100 µM (inactive) | 56.6 µM (inactive) | 61.7 µM (inactive) | 61.2 µM (inactive) | 17.9 µM (inactive) | > 100 µM (inactive)
2 | O=C(O)[C@H](CCC[C@H]1C(=O)O[C@H](c2ccccc2)[C@H](c2ccccc2)N1C(=O)OCc1ccccc1)N[C@@H](c1ccccc1)[C@H](O)c1ccccc1 | > 100 µM (inactive) | > 100 µM (inactive) | 30.8 µM (inactive) | > 100 µM (inactive) | 21 µM (inactive) | 20.8 µM (inactive) | 28.6 µM (inactive) | 25.4 µM (inactive) | 28.3 µM (inactive) | 17.7 µM (inactive) | 20.7 µM (inactive) | 21.2 µM (inactive) | 15.5 µM (inactive) | 23.7 µM (inactive) | 22.6 µM (inactive) | 33.7 µM (inactive) | 28.2 µM (inactive) | 19.8 µM (inactive) | 20.7 µM (inactive) | 40.7 µM (inactive)
3 | OC1(C2(c3ccc(Cl)cc3)CCCC2)c2ccccc2C2=NCCN21 (stereo not given) | 15.8 µM (inactive) | 14.8 µM (inactive) | 10.3 µM (inactive) | 0.0716 µM (active) | 2.4 µM (inactive) | 11.7 µM (inactive) | 10.8 µM (inactive) | 36.3 µM (inactive) | 17.5 µM (inactive) | 14.8 µM (inactive) | 12.6 µM (inactive) | 17.7 µM (inactive) | 16.2 µM (inactive) | 16.4 µM (inactive) | 1.68 µM (inactive) | 17.5 µM (inactive) | 16.5 µM (inactive) | 15.3 µM (inactive) | 18.1 µM (inactive) | 15.1 µM (inactive)
4 | COC(=O)[C@H]1[C@@H](O)[C@@]2(O)c3c(OC)cc(OC)cc3O[C@@]2(c2ccc3c(c2)OCO3)[C@@H]1c1ccccc1 | < 0.005 µM (active) | 0.00893 µM (active) | 0.00736 µM (active) | 0.00873 µM (active) | 0.00838 µM (active) | < 0.005 µM (active) | < 0.005 µM (active) | 0.0146 µM (active) | < 0.005 µM (active) | 0.0136 µM (active) | 0.00603 µM (active) | 0.0168 µM (active) | < 0.0122 µM (active) | 0.0225 µM (active) | 0.0647 µM (active) | 0.0117 µM (active) | 0.00578 µM (active) | 0.00815 µM (active) | < 0.005 µM (active) | 0.00684 µM (active)
5 | COc1cccc2c1Cc1cc(-c3ccccc3)[n+](C)n1-2 | 27.9 µM (inactive) | 66.8 µM (inactive) | 1.38 µM (inactive) | 30.1 µM (inactive) | 10.2 µM (inactive) | 3.5 µM (inactive) | 3.54 µM (inactive) | 25.1 µM (inactive) | 2.3 µM (inactive) | 13.2 µM (inactive) | 11.8 µM (inactive) | 10.3 µM (inactive) | 4.93 µM (inactive) | 2.92 µM (inactive) | 19 µM (inactive) | 19.9 µM (inactive) | 20.3 µM (inactive) | 46.1 µM (inactive) | 7.57 µM (inactive) | 28.8 µM (inactive)
6 | O=C(O)c1ccccc1CC(Cc1ccccc1)C(=O)O (stereo not given) | > 100 µM (inactive) | > 100 µM (inactive) | > 100 µM (inactive) | > 100 µM (inactive) | > 100 µM (inactive) | > 100 µM (inactive) | > 100 µM (inactive) | > 100 µM (inactive) | > 10 µM (inactive) | > 100 µM (inactive) | > 100 µM (inactive) | > 100 µM (inactive) | > 100 µM (inactive) | > 100 µM (inactive) | > 100 µM (inactive) | 97.1 µM (inactive) | > 100 µM (inactive) | > 100 µM (inactive) | > 100 µM (inactive) | > 100 µM (inactive)
